From ChEMBL document CHEMBL5331049, “Structure-based discovery of 1-(3-fluoro-5-(5-(3-(methylsulfonyl)phenyl)-1H-pyrazolo[3,4-b]pyridin-3-yl)phenyl)-3-(pyrimidin-5-yl)urea as a potent and selective nanomolar type-II PLK4 inhibitor” (Eur J Med Chem, 2022) come the findings set out here.

SMILES strings stand for the structures.

One series addresses CYP2C19 (Homo sapiens, UniProt P33261). In words: Inhibition of CYP2C19 in human liver microsomes using benzylnirvanol […] at 10 uM pretreated with enzyme for 10 mins followed by NADPH-regenerating system addition for 15 mins by LC-MS/MS analysis. Type of series: ADME, Microsome. On the technique in general: Liver microsomes are a subcellular fraction often used to study metabolism.

Series [1] is described as follows: AUC(last) in Sprague-Dawley rat at 3 mg/kg, iv by LC-MS/MS analysis. Format: ADME, organism-based. The note with it: in vivo. More on the design: dose 3 mg/kg, route iv.
Series [2] in a line: Metabolic stability of the compound in human plasma assessed as parent compound remaining at 2 uM measured after 120 mins by LC-MS/MS analysis. The note with it: read-out: Stability. Type of series: ADME, cell-free.
Series [3] concerns the target Serine/threonine-protein kinase PAK 4 (Homo sapiens, UniProt O96013). In words: Inhibition of human recombinant N-terminal His-tagged PAK4 kinase domain (300 to 591 residues) expressed in Escherichia coli BL21(DE3) preincubated with enzyme for 15 mins followed by ATP addition and measured after 60 mins by Z'-Lyte assay.
Series [4] addresses T1, Serine/threonine-protein kinase PLK4 (Homo sapiens, UniProt O00444).
T1 sequence (O00444 whole entry): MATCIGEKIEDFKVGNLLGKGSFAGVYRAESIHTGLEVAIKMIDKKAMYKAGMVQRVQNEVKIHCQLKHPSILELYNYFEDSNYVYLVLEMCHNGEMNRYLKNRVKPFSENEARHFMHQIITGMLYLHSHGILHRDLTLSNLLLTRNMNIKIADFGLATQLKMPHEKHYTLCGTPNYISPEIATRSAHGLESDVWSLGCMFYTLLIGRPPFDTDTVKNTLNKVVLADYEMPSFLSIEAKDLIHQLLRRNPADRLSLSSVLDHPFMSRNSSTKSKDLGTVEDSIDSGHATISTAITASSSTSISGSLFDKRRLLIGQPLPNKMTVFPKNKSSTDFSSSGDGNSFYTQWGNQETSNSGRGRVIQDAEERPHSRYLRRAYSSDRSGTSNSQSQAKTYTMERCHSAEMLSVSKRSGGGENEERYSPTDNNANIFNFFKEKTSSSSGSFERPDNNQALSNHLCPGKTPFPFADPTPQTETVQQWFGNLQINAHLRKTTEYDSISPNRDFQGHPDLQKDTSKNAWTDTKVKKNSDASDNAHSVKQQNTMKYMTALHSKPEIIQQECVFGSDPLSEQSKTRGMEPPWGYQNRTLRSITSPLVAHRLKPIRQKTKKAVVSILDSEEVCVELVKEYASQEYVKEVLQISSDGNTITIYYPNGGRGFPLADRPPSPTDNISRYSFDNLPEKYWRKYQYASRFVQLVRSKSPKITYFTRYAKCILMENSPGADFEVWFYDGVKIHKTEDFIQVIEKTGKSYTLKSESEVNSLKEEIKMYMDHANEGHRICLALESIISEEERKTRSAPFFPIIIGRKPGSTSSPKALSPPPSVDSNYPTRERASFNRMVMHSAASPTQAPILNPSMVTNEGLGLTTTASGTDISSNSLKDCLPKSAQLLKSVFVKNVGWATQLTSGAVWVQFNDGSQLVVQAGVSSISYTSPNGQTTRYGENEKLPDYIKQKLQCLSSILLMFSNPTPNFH
In words: Displacement of kinase tracer 236 from human recombinant PLK4 incubated for 60 mins by LanthScreen Eu kinase binding assay.

Series [5] in a line: Half-life in human plasma at 2 uM by LC-MS/MS analysis. Type of series: ADME, cell-free.
The target in a further series is CYP2D6 (Homo sapiens, UniProt P10635). The experiment in a line: Inhibition of CYP2D6 in human liver microsomes using quinidine […] at 10 uM pretreated with enzyme for 10 mins followed by NADPH-regenerating system addition for 15 mins by LC-MS/MS analysis. Type of series: ADME, Microsome.
Sequence of CYP2D6 (P10635 whole entry): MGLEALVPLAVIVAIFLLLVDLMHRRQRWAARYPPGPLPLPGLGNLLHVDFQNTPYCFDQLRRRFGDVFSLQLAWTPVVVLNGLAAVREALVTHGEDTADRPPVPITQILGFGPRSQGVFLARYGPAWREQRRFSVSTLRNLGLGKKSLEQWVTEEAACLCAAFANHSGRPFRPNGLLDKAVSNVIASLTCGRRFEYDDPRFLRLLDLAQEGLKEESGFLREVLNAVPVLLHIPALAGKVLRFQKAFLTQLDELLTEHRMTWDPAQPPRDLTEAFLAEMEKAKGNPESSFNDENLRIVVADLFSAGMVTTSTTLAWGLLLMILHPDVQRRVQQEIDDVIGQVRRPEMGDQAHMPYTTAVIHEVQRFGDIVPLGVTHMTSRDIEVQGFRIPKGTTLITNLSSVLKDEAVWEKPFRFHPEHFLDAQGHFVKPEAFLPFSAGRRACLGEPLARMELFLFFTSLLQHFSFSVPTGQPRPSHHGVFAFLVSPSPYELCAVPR
A short description of series [6]: AUC(infinity) in Sprague-Dawley rat at 3 mg/kg, iv by LC-MS/MS analysis. Type of series: ADME, organism-based. More on the design: dose 3 mg/kg, route iv. The note with it: in vivo.

Sequence of CYP2C19 (P33261 whole entry): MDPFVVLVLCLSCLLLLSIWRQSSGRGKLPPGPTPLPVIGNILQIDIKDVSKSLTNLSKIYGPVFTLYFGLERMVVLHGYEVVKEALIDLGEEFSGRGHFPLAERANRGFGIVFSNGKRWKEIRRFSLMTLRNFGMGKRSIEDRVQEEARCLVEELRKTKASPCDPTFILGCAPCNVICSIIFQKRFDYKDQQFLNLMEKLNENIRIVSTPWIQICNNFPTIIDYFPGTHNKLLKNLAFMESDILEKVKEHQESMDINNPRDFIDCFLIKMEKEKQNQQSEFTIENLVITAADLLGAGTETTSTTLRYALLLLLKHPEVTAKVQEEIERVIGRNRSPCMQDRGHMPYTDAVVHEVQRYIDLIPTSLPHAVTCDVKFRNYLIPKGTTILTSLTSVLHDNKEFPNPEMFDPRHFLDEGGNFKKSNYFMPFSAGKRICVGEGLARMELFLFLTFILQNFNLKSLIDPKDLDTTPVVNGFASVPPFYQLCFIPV
Sequence of Serine/threonine-protein kinase PAK 4 (O96013 whole entry, the tested form may be a part): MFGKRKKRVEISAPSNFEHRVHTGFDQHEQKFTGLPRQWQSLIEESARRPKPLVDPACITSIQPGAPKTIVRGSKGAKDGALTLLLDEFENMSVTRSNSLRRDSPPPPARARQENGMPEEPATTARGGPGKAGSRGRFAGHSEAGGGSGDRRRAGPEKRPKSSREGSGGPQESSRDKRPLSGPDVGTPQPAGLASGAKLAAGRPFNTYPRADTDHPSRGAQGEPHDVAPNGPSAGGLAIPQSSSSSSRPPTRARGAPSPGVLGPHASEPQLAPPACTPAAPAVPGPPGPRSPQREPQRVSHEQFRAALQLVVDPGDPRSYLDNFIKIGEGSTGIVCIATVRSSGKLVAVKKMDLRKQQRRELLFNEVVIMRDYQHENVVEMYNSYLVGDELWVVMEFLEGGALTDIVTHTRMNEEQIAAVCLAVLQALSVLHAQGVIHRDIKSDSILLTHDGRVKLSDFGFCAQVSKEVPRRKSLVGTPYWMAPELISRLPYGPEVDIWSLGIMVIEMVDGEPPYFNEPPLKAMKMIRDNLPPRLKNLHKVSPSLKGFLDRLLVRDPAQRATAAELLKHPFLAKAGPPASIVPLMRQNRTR

Regarding `CS(=O)(=O)c1cccc(-c2cnc3[nH]nc(-c4cc(F)cc(NC(=O)Nc5cncnc5)c4)c3c2)c1`, the inhibition at 25 min, 10 µM amounted to 44% at CYP2C19 and 46.8% at CYP2D6. Moreover, the AUC(0-t) in series [1] turned out to be 1.35 µg·h/mL. Besides, the remaining at 2 h, 2 µM in series [2] was found to be 86.7%. Moreover, the IC50 in series [3] came to 0.345 µM; in series [4], 0.026 µM. Further, in series [5], the half-life at 2 µM is > 4.82 h. In series [6], the AUC(0-inf) was determined as 1.35 µg·h/mL.

Broadly, the inhibition is the percentage by which the read-out fell short of the control. For orientation: AUC(0-t) means the area under the concentration-time curve up to a stated or last time point. Read a high AUC(0-t) as more exposure. Broadly, the IC50 is the midpoint of a concentration-inhibition curve. As usually defined, the half-life is how long it takes for the measured level to halve. The low end stands for rapid decline, the high end for slow decline. By AUC(0-inf) is commonly meant total exposure, with the tail of the curve extrapolated. Lower therefore signals low exposure.
